Experimental data reported in patent publication US12059425B2, “Heterocyclic compounds and uses thereof” (Kumquat Biosciences Inc., priority 2022, dated 2024).

How the values were obtained:
GP2D cells = experiment: Ras cellular assay, cell proliferation GP2D; assay type: cell-based
Method: (§1) For example, this assay can be also used to assess selective growth inhibition of a mutant Ras protein relative to a wildtype, or relative to a different mutant Ras protein.
ASPC-1 (ATCC CRL-1682), Panc-10.05 (ATCC CRL-2547), A427, GP2d cell lines or any other cell lines comprising a G12D mutation can be used to assess Ras cellular signaling in vitro, e.g., in response to a compound described herein. For example, ASPC-1 culture medium is prepared with RPMI-1640 and 10% heat-inactivated FBS. Panc-10.05 culture medium is prepared with RPMI-1640, 10 Units/mL human recombinant insulin, and 10% FBS. A427 cell culture is prepared with RPMI-1640 and 10% heat-inactivated FBS. A CellTiter-Glo (CTG) luminescent based assay (Promega) is used to assess growth of the cells, as a measurement of the ability of the compounds herein to inhibit Ras signaling in the cells. The cells (e.g., 800 per well) are seeded in their respective culture medium in standard tissue culture-treated 384-well format plates (Falcon #08-772-116) or ultra-low attachment surface 384-well format plates (S-Bio #MS-9384UZ). The day after plating, cells are treated with a dilution series (e.g., a 9 point 3-fold dilution series) of the compounds herein (e.g., approximately 40 μL final volume per well). Cell viability can be monitored (e.g., approximately 5 days later) according to the manufacturer's recommended instructions, where the CellTiter-Glo reagent is added (e.g., approximately 10 μL), vigorously mixed, covered, and placed on a plate shaker (e.g., approximately for 20 min) to ensure sufficient cell lysis prior to assessment of luminescent signal. The IC50 values are determined using the four parameter fit. The resulting IC50 value is a measurement of the ability of the test compound to reduce cell growth of Ras-driven cells (e.g., tumor cell lines) in vitro and/or in vivo.

K-Ras G12S = molecular target: T1, K-Ras G12S (Homo sapiens, UniProt P01116, G12S); experiment: PPI-HTRF assay, K-Ras G12S / SOS1 interaction; assay type: biochemical; settings: read-out: PPI-HTRF-5 nM (K-Ras G12S IC50)
T1 construct: made in house; host or cells: E. coli, e.g. BL21 (DE3)
T1 sequence (P01116 1-188 isoform P01116-2 G12S): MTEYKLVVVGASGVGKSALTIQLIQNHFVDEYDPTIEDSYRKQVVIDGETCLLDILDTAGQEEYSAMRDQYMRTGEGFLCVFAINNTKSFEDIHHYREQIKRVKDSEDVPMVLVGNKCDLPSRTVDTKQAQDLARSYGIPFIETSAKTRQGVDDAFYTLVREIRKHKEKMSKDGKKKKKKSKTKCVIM
Excerpt: (§2) This assay can be also used to assess a selective inhibition or reduction of signaling output of a mutant Ras protein relative to a wildtype, or relative to a different mutant Ras protein. For example, the equilibrium interaction of wildtype Kras or K-Ras mutant (e.g., wildtype or a mutant thereof) with SOS1 (e.g., hSOS1) can be assessed as a proxy or an indication for a subject compound's ability to bind and inhibit Ras protein. HTRF assay detects from (i) a fluorescence resonance energy transfer (FRET) donor (e.g., antiGST-Europium) that is bound to GST-tagged K-Ras mutant to (ii) a FRET acceptor (e.g., anti-6His-XL665) bound to a His-tagged hSOS1.
(§3) The assay buffer can contain ˜5 mM HEPES pH 7.4, ˜150 mM NaCl, ˜1 mM DTT, 0.05% BSA and 0.0025% (v/v) Igepal. A Ras working solution is prepared in an assay buffer containing typically a suitable amount of the protein construct (e.g., GST-tagged K-Ras mutant) and the FRET donor (e.g., antiGST-Eu(K) from Cisbio, France). A SOS1 working solution is prepared in an assay buffer containing suitable amount of the protein construct (e.g., His-hSOS1) and the FRET acceptor (e.g., anti-6His-XL665 from Cisbio, France). A suitable amount of the protein construct will depend on the range of activity or range of IC50 values being detected or under investigation. For detecting IC50 within a range of 500 nM, the protein constructs of the same range of molarity can be utilized.
(§4) A fixed volume of DMSO with or without test compound is transferred into a 384-well plate. Ras working solution is added to all wells of the test plate. SOS1 working solution is added to all wells except for those that are subsequently filled the inhibitor control solution. Upon incubation for about 10 minutes or longer, the fluorescence is measured with a M1000Pro plate reader (Tecan) using HTRF detection (excitation 337 nm, emission 1: 620 nm, emission 2: 665 nm). Compounds are tested in duplicate at different concentrations (for example, 10 μM, 2.5 μM, 0.63 μM, 0.16 μM, 0.04 μM, 0.01 μM test compound). The ratiometric data (i.e., emission 2 divided by emission 1) is used to calculate IC50 values against Ras using GraphPad Prism (GraphPad software). Following this general procedure, samples are tested with or without a subject compound disclosed herein including compounds exemplified in Table 1 to assess their abilities to inhibit a mutant K-Ras relative to another K-Ras (e.g., different mutant or wildtype). Signaling output measured in terms of IC50 values can be obtained, a ratio of IC50 against one mutant relative to another mutant can be calculated. For instance, a selective reduction of K-Ras G12D signaling output can be evidenced by a ratio greater than one. In particular, a selective reduction of K-Ras G12D signaling relative to K-Ras WT signaling is evidenced if the ratio of IC50 (against K-Ras WT) to IC50 (against K-Ras G12D) is greater than 1.

K-Ras G12D = molecular target: T2, K-Ras G12D (Homo sapiens, UniProt P01116, G12D); experiment: PPI-HTRF assay, K-Ras G12D / SOS1 interaction; assay type: biochemical; settings: HTRF, K-Ras G12D; read-out: PPI-HTRF-5 nM (K-Ras G12D IC50)
T2 construct: made in house; host or cells: E. coli, e.g. BL21 (DE3)
T2 sequence (P01116 1-188 isoform P01116-2 G12D): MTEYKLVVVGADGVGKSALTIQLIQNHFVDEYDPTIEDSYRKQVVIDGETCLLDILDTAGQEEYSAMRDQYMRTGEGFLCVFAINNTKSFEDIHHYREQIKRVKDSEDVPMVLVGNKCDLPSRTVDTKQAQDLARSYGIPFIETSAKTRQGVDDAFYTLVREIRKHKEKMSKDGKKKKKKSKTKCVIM
Excerpt: as §2, §3, §4

SW620 cells = experiment: Ras cellular assay, cell proliferation SW620; assay type: cell-based; settings: Homo sapiens, SW-620
Excerpt: as §1

K-Ras G12V = molecular target: T3, K-Ras G12V (Homo sapiens, UniProt P01116, G12V); experiment: PPI-HTRF assay, K-Ras G12V / SOS1 interaction; assay type: biochemical; settings: HTRF, K-Ras G12V; read-out: PPI-HTRF-5 nM (K-Ras G12V IC50)
T3 construct: made in house; host or cells: E. coli, e.g. BL21 (DE3)
T3 sequence (P01116 1-188 isoform P01116-2 G12V): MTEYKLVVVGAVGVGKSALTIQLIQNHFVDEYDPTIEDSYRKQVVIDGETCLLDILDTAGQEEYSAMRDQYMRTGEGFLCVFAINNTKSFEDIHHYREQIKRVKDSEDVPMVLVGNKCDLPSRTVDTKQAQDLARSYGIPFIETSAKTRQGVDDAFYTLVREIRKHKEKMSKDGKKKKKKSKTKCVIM
Excerpt: as §2, §3, §4

wildtype K-Ras = molecular target: T4, wildtype K-Ras (Homo sapiens, UniProt P01116); experiment: PPI-HTRF assay, wildtype K-Ras / SOS1 interaction; assay type: biochemical; settings: HTRF, K-Ras wt; read-out: PPI-HTRF-5 nM (K-Ras wt IC50)
T4 construct: made in house; host or cells: E. coli, e.g. BL21 (DE3)
T4 sequence (P01116 1-188 isoform P01116-2): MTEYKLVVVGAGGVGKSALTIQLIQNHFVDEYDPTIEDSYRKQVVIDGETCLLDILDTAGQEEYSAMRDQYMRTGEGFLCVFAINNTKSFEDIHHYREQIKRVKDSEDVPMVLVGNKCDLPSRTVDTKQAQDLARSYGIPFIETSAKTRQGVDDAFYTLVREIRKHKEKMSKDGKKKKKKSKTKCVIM
Excerpt: as §2, §3, §4

Row | SMILES | IC50 (GP2D cells) [µM] | IC50 (K-Ras G12S) [µM] | IC50 (K-Ras G12D) [µM] | IC50 (SW620 cells) [µM] | IC50 (K-Ras G12V) [µM] | IC50 (wildtype K-Ras) [µM]
1 | N#CCCN1c2nc(OC[C@@]34CCCN3C[C@H](F)C4)nc3c(F)c(-c4ccc(F)c5sc(N)c(C#N)c45)c(Cl)c(c23)OCC2COCC21 (stereo partly drawn) [compound 197, 2-amino-4-(6-chloro-12-(2-cyanoethyl)-4-fluoro-2-(((2R,7aS)-2-fluorotetrahydro-1H-pyrrolizin-7a(5H)-yl)methoxy)-8a,9,11a,12-tetrahydro-8H,11H-furo[3′,4′:6,7][1,5]oxazocino[4,3,2-de]quinazolin-5-yl)-7-fluorobenzo[b]thiophene-3-carbonitrile] | < 5 | < 5 | < 5 | < 5 | < 5 | < 5
2 | CC1Oc2c(Cl)c(-c3ccc(F)c4sc(N)c(C#N)c34)c(F)c3nc(OC[C@@]45CCCN4C[C@H](F)C5)nc(c23)N(C)C2COCC12 (some centres unmarked) [compound 104] | < 5 | < 5 | < 5 | < 5 | < 5 | < 5
3 | N#Cc1c(N)sc2c(F)ccc(-c3c(Cl)c4c5c(nc(OC[C@@]67CCCN6C[C@H](F)C7)nc5c3F)N3CCC[C@@H]3CC(C(F)F)O4)c12 (single isomer, unassigned) [compound 212] | < 5 |  | < 5 | < 5 |  | 
4 | N#CCC1CCN2c3nc(OC[C@@]45CCCN4C[C@H](F)C5)nc4c(F)c(-c5ccc(F)c6sc(N)c(C#N)c56)c(Cl)c(c34)OCC2C1 (single isomer, unassigned) [compound 162] | < 5 |  |  |  |  | 
5 | N#Cc1c(N)sc2c(F)ccc(-c3c(Cl)c4c5c(nc(OC[C@@]67CCCN6C[C@H](F)C7)nc5c3F)N3CCC[C@@H]3CCO4)c12 [compound 183, 2-amino-4-((13aR)-10-chloro-8-fluoro-6-(((2R,7aS)-2-fluorotetrahydro-1H-pyrrolizin-7a(5H)-yl)methoxy)-1,2,3,12,13,13a-hexahydropyrrolo[1′,2′:5,6][1,5]oxazocino [4,3,2-de]quinazolin-9-yl)-7-fluorobenzo[b]thiophene-3-carbonitrile] | < 5 |  |  |  |  | 
6 | N#Cc1c(N)sc2c(F)ccc(-c3c(Cl)c4c5c(nc(OCC67CCCN6C[C@H](F)C7)nc5c3F)N3CCCCC3CCO4)c12 (single isomer, unassigned) [compound 184] | < 5 |  | < 5 |  |  | 
7 | N#Cc1c(N)sc2c(F)ccc(-c3c(Cl)c4c5c(nc(OC[C@@]67CCCN6C[C@H](F)C7)nc5c3F)N3CCC(C#N)CC3CO4)c12 (single isomer, unassigned) [compound 211] | < 5 |  | < 5 |  |  | 
8 | CC(O)C1C[C@H]2CCCN2c2nc(OC[C@@]34CCCN3C[C@H](F)C4)nc3c(F)c(-c4ccc(F)c5sc(N)c(C#N)c45)c(Cl)c(c23)O1 (single isomer, unassigned) [compound 135] | < 5 |  |  | > 5 |  | 
9 | CCN[C@@H]1CC[C@H]2COc3c(Cl)c(-c4ccc(F)c5sc(N)c(C#N)c45)c(F)c4nc(OC[C@@]56CCCN5C[C@H](F)C6)nc(c34)N2C1 [compound 119, 2-amino-4-((5aS,8R)-3-chloro-8-(ethylamino)-1-fluoro-12-(((2R,7aS)-2-fluorotetrahydro-1H-pyrrolizin-7a(5H)-yl)methoxy)-5,5a,6,7,8,9-hexahydropyrido[2′,1′:3,4][1,4]oxazepino [5,6,7-de]quinazolin-2-yl)-7-fluorobenzo[b]thiophene-3-carbonitrile] |  | < 5 | < 5 |  | < 5 | < 5
10 | N#Cc1c(N)sc2c(F)ccc(-c3c(Cl)c4c5c(nc(OC[C@@]67CCCN6C[C@H](F)C7)nc5c3F)N3C[C@H](N)C[C@H]3CO4)c12 [compound 195, 2-amino-4-((8aS,10R)-10-amino-6-chloro-4-fluoro-2-(((2R,7aS)-2-fluorotetrahydro-1H-pyrrolizin-7a(5H)-yl)methoxy)-8a,9,10,11-tetrahydro-8H-pyrrolo[2′,1′:3,4][1,4]oxazepino[5,6,7-de]quinazolin-5-yl)-7-fluorobenzo[b]thiophene-3-carbonitrile] |  | < 5 | < 5 |  | < 5 | < 5
11 | N#Cc1c(N)sc2c(F)ccc(-c3c(Cl)c4c5c(nc(OC[C@@]67CCCN6C[C@H](F)C7)nc5c3F)N3CC5(CCN5C(=O)n5cncn5)CC3CO4)c12 (stereo partly drawn) [compound 190, 2-amino-4-(6′-chloro-4′-fluoro-2′-(((2R,7aS)-2-fluorotetrahydro-1H-pyrrolizin-7a(5H)-yl)methoxy)-1-(1H-1,2,4-triazole-1-carbonyl)-8a′,9′-dihydro-8′H,11′H-spiro[azetidine-2,10′-pyrrolo[2′,1′:3,4][1,4]oxazepino[5,6,7-de]quinazolin]-5′-yl)-7-fluorobenzo[b]thiophene-3-carbonitrile] | < 5 |  | < 5 |  |  | 
12 | CN1c2nc(OC[C@@]34CCCN3C[C@H](F)C4)nc3c(F)c(-c4ccc(F)c5sc(N)c(C#N)c45)c(Cl)c(c23)OCC2OCCCC21 (stereo partly drawn) [compound 199, 2-amino-4-(6-chloro-4-fluoro-2-(((2R,7aS)-2-fluorotetrahydro-1H-pyrrolizin-7a(5H)-yl)methoxy)-13-methyl-8,8a,11,12,12a,13-hexahydro-10H-pyrano[3′,2′:6,7][1,5]oxazocino[4,3,2-de]quinazolin-5-yl)-7-fluorobenzo[b]thiophene-3-carbonitrile] |  | < 5 | < 5 |  | < 5 | < 5
13 | N#Cc1c(N)sc2c(F)ccc(-c3c(Cl)c4c5c(nc(OC[C@@]67CCCN6C[C@H](F)C7)nc5c3F)N3CCC(F)(F)CC3CO4)c12 (stereo partly drawn) [compound 203, 2-amino-4-(6-chloro-4,10,10-trifluoro-2-(((2R,7aS)-2-fluorotetrahydro-1H-pyrrolizin-7a(5H)-yl)methoxy)-8,8a,9,10,11,12-hexahydropyrido[2′,1′:3,4][1,4]oxazepino [5,6,7-de]quinazolin-5-yl)-7-fluorobenzo[b]thiophene-3-carbonitrile] |  | < 5 | < 5 |  | < 5 | < 5
